Measurements from US20250333397A1 (REMIX THERAPEUTICS INC., priority 2021, published 2025).
Read-outs that look alike come from different tables or passages of the source.

Assays:
Format in all cases: cell-based, human
Target C mRNA = test: RT-qPCR splicing assay panel, Target C canonical junction (CJ) mRNA; conditions: Homo sapiens
Method in brief: (§1)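 Cells: A673 (DMEM/10% FBS, plated 24 h before) or K562 (IMDM/10% FBS). Dosing: 11-pt 3-fold series, 10 uM top final, ≤0.25% DMSO, 24 h, 37 °C/5% CO2. Readout: RT-qPCR of CJ and AJ junctions, housekeeper-normalized, RQ = 2^(-ΔΔCt) vs DMSO.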

MYB mRNA = test: RT-qPCR splicing assay, MYB canonical (CJ) and alternative (AJ) junction mRNA; conditions: Homo sapiens; for AC50: read-out: MYB AJ (AC50, increase in AJ mRNA)
Method in brief: as §1

HTT mRNA = test: RT-qPCR splicing assay, HTT canonical (CJ) and alternative (AJ) junction mRNA; conditions: Homo sapiens; for AC50: read-out: HTT AJ (AC50, increase in AJ mRNA)
Method in brief: as §1

SMN2 mRNA = test: RT-qPCR splicing assay panel, SMN2 canonical junction (CJ) mRNA; conditions: Homo sapiens
Method in brief: as §1

[1] = canonical junction (CJ) mRNA, RT-qPCR panel, Table 4A, read-out: Target C, decrease in CJ mRNA levels, IC50
[2] = 24 h, Table 3A, A673 or K562 cells, 24 h treatment
[3] = canonical junction (CJ) mRNA, RT-qPCR panel, Table 4A, read-out: MYB, decrease in CJ mRNA levels, IC50
[4] = canonical junction (CJ) mRNA, RT-qPCR panel, Table 4A, read-out: HTT, decrease in CJ mRNA levels, IC50
[5] = canonical junction (CJ) mRNA, RT-qPCR panel, Table 4A, read-out: SMN2, decrease in CJ mRNA levels, IC50
[6] = Table 4B, gene panel, read-out: Target C (IC50, decrease in CJ mRNA levels)
[7] = 24 h, Table 3B, A673 or K562 cells, 24 h treatment
[8] = 24 h, Table 3B, A673 or K562 cells, 24 h treatment, read-out: MYB CJ (IC50, decrease in CJ mRNA)
[9] = Table 4B, gene panel, read-out: MYB (IC50, decrease in CJ mRNA levels)
[10] = 24 h, Table 3B, A673 or K562 cells, 24 h treatment, read-out: HTT CJ (IC50, decrease in CJ mRNA)
[11] = Table 4B, gene panel, read-out: HTT (IC50, decrease in CJ mRNA levels)
[12] = Table 4B, gene panel, read-out: SMN2 (IC50, decrease in CJ mRNA levels)

| IC50 (Target C mRNA; [1]) [nM] | IC50 (MYB mRNA; 24 h, Table 3A, A673 or K562 cells, 24 h treatment, read-out: MYB CJ (IC50, decrease in CJ mRNA)) [nM] | IC50 (MYB mRNA; [3]) [nM] | IC50 (HTT mRNA; 24 h, Table 3A, A673 or K562 cells, 24 h treatment, read-out: HTT CJ (IC50, decrease in CJ mRNA)) [nM] | IC50 (HTT mRNA; [4]) [nM] | IC50 (SMN2 mRNA; [5]) [nM] | IC50 (Target C mRNA; [6]) [nM] | IC50 (MYB mRNA; [8]) [nM] | IC50 (MYB mRNA; [9]) [nM] | IC50 (HTT mRNA; [10]) [nM] | IC50 (HTT mRNA; [11]) [nM] | IC50 (SMN2 mRNA; [12]) [nM] | SMILES | AC50 (MYB mRNA; [2]) [nM] | AC50 (HTT mRNA; [2]) [nM] | AC50 (MYB mRNA; [7]) [nM] | AC50 (HTT mRNA; [7]) [nM] |
| --- | --- | --- | --- | --- | --- | --- | --- | --- | --- | --- | --- | --- | --- | --- | --- | --- |
| 100 to 1000 | 100 to 1000 | 100 to 1000 | < 100 | < 100 | < 100 | – | – | – | – | – | – | COc1cc(-c2cc(O)c(-c3ccc(N4CC[C@@](C)(NCC5CC5)C4)nn3)cc2F)cnn1 [Compound 451, 2-{6-[(3R)-3-[(cyclopropylmethyl)amino]-3-methylpyrrolidin-1-yl]pyridazin-3-yl}-4-fluoro-5-(6-methoxypyridazin-4-yl)phenol] | 100 to 1000 | 100 to 1000 | – | – |
| 100 to 1000 | – | 100 to 1000 | – | < 100 | 100 to 1000 | – | – | – | – | – | – | COc1cc(-c2cc(O)c(-c3ccc(N4CC[C@](C)(NCC5CC5)C4)nn3)cc2F)cnn1 [Compound 452, 2-{6-[(3S)-3-[(cyclopropylmethyl)amino]-3-methylpyrrolidin-1-yl]pyridazin-3-yl}-4-fluoro-5-(6-methoxypyridazin-4-yl)phenol] | – | – | – | – |
| 1000 to 10000 | – | 1000 to 10000 | – | < 100 | < 100 | – | – | – | – | – | – | Cc1ncc(-c2cc(O)c(-c3ccc(N4CC[C@@H](CNC5CCC5)C4)nn3)cc2F)s1 [Compound 453] | – | – | – | – |
| 100 to 1000 | – | 1000 to 10000 | – | < 100 | < 100 | – | – | – | – | – | – | Cc1ncc(-c2cc(O)c(-c3ccc(N4CC[C@H](CNC5CCC5)C4)nn3)cc2F)s1 [Compound 454] | – | – | – | – |
| > 10000 | – | > 10000 | – | > 10000 | > 10000 | – | – | – | – | – | – | Oc1cc(-c2cc(OC(F)(F)F)ncn2)ccc1-c1ccc(N2CCC(NCC3CC3)C2)nn1 (stereo not drawn) [Compound 455] | – | – | – | – |
| – | – | – | – | – | – | 100 to 1000 | 1000 to 10000 | 1000 to 10000 | 100 to 1000 | 100 to 1000 | < 100 | Cn1c(=O)oc2cc(-c3ccc(N4CCC(NC(C)(C)C)C4)nn3)c(O)cc21 (stereo not drawn) [Compound 800] | – | – | 100 to 1000 | 100 to 1000 |
| – | – | – | – | – | – | 1000 to 10000 | 1000 to 10000 | 1000 to 10000 | 1000 to 10000 | 1000 to 10000 | 100 to 1000 | Cn1cc2cc(-c3ccc(N4CCC(NC(C)(C)C)C4)nn3)c(O)cc2n1 (stereo not drawn) [Compound 801] | – | – | 1000 to 10000 | 1000 to 10000 |
| – | – | – | – | – | – | 1000 to 10000 | 1000 to 10000 | 1000 to 10000 | 100 to 1000 | 100 to 1000 | 1000 to 10000 | Cn1cc2cc(-c3cnc(N4CC[C@@H](NC(C)(C)C)C4)nn3)c(O)cc2n1 [Compound 805] | – | – | > 10000 | 1000 to 10000 |
| – | – | – | – | – | – | > 10000 | > 10000 | > 10000 | 1000 to 10000 | 1000 to 10000 | 1000 to 10000 | Cc1nc2cc(O)c(-c3cnc(N4CC[C@@H](NC(C)(C)C)C4)nn3)cc2o1 [Compound 808] | – | – | > 10000 | > 10000 |
| – | – | – | – | – | – | 1000 to 10000 | 1000 to 10000 | 1000 to 10000 | < 100 | < 100 | 100 to 1000 | Cc1nc2cc(O)c(-c3cnc(N4CC[C@H](NC(C)(C)C)C4)nn3)cc2o1 [Compound 809] | – | – | 1000 to 10000 | 1000 to 10000 |
| – | – | – | – | – | – | 100 to 1000 | 100 to 1000 | 100 to 1000 | < 100 | < 100 | < 100 | Cc1nc2cc(O)c(-c3ccc(N4CC[C@@H](NC(C)(C)C)C4)nn3)cc2o1 [Compound 812] | – | – | 100 to 1000 | < 100 |
